According to patent US20240059741A1, “COMPOSITION FOR PREVENTION OR TREATMENT OF SARS-COV-2 INFECTION” (priority 2020, published 2024):

Tests used:
[1] = molecular target: T1, proteinaseK (Parengyodontium album, UniProt P06873); assay: Peptide remaining degree after ProtK treatment (Coomassie staining); type: in vitro ADME; conditions: 5 ug/ml proteinaseK, 37° C., 10, 30 and 60 minutes, FIG. 7
T1 construct: purchased Bioshop
Experimental: 200 μL of 50 μM stock solution was prepared with a base buffer (10 mM Tris-base, 10 mM NaCl, pH 7.4) and supplemented with 5 μM CaCl2. For untreated TO samples, 30 μL were obtained from each sample. Thereafter, 5 ug/ml of proteinaseK (Bioshop) was added to a final concentration of the remaining stock. […] Protease inactivated samples were frozen at −20° C. before further use. The frozen sample was supplemented with 8 μL of sample loading buffer (4×NuPAGE; ThermoFisher Scientific), boiled for 10 minutes (50° C.), and centrifuged at 13,500 RPM for 10 minutes before mounting a gel [12% NuPAGE Bis-Tris (ThermoFisher Scientific)] with 1×Mes running buffer. The gel was treated at 200 V for 35 minutes and stained with Coomassie Brilliant Blue dye G-250 (Thermo Fisher Scientific). ImageJ software having a background subtractive function was used as a density meter. All samples were normalized to untreated samples (TO).

[2] = tested on: SARS-CoV-2 S1
[3] = tested on: SARS-CoV-2 S1; remark: listed apart in the source

T1 sequence (P06873 106-384, species assumed): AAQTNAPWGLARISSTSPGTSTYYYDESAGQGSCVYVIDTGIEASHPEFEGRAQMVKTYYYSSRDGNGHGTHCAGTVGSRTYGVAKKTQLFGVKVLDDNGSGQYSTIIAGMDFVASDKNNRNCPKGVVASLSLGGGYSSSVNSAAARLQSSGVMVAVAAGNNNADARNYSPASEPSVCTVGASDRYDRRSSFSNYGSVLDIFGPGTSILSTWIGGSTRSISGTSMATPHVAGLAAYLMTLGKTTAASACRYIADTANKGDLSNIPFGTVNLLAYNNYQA

CC[C@H](C)[C@H](N)C(=O)N[C@@H](CCC(=O)O)C(=O)N[C@@H](CCC(=O)O)C(=O)N[C@@H](CCC(N)=O)C(=O)N[C@@H](C)C(=O)N[C@@H](CCCCN)C(=O)N[C@H](C(=O)N[C@@H](Cc1ccccc1)C(=O)N[C@@H](CC(C)C)C(=O)N[C@@H](CC(=O)O)C(=O)N[C@@H](CCCCN)C(=O)N[C@@H](Cc1ccccc1)C(=O)N[C@@H](CC(N)=O)C(=O)N[C@@H](Cc1c[nH]cn1)C(=O)N[C@@H](CCC(=O)O)C(=O)N[C@@H](C)C(=O)N[C@@H](CCC(=O)O)C(=O)N[C@@H](CC(=O)O)C(=O)N[C@@H](CC(C)C)C(=O)N[C@@H](Cc1ccccc1)C(=O)N[C@@H](Cc1ccc(O)cc1)C(=O)N[C@@H](CCC(N)=O)C(=O)N[C@@H](CO)C(=O)N[C@@H](CO)C(=O)N[C@@H](CC(C)C)C(=O)N[C@@H](C)C(=O)N[C@@H](CO)C(=O)NCC(=O)N1CCC[C@H]1C(=O)NCC(=O)N[C@H]1CSSC[C@@H](C(=O)N[C@@H](CCCNC(=N)N)C(=O)N[C@H](C(=O)N[C@@H](CC(C)C)C(=O)O)[C@@H](C)CC)NC(=O)[C@H](CC(=O)O)NC(=O)CNC(=O)[C@H](CCCCN)NC(=O)CNC(=O)[C@H](CC(C)C)NC1=O)[C@@H](C)O [CSNP1]
peptide remaining degree after proteinase K treatment [1]: barely remained
ka [2]: 603.4 M⁻¹ s⁻¹
kd [3]: 0.0001878 s⁻¹
